Source: patent US9926319B2, “Pyridyl piperidines” (MERCK PATENT GMBH, priority 2014, dated 2018)
Read-outs that look alike come from different tables or passages of the source.

Legend:
Wnt pathway = experiment: Cellular assay for Wnt pathway activity (luciferase reporter cell based assay); settings: HEK293 luciferase reporter cell line (ER-DSH, TCF dependent promoter), induced with estrogen (1 μM), read-out: 7df3 IC50
[1] = CLint (intrinsic clearance) assay, microsomal incubation; format: in vitro ADME, Human; settings: NADPH, 37° C., up to 30 min; for microsomal CLint at 0.8 μM: human, liver microsomes, pH 7.4, human liver microsomes 0.5 mg/mL protein; for Human Clint: human liver microsomes 0.5 mg/mL protein
Procedure, shortened: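 Test compound at 0.8 μM was incubated at 37 °C with liver microsomes at 0.5 mg/mL protein in 0.1 M potassium phosphate pH 7.4 with 1 mM MgCl2, NADPH-started, with no-cofactor controls. Acetonitrile quench at 0, 5, 10, 20 and 30 min, then LC-MS/MS peak-area decline. CLint (μL/min/mg protein) = k·1000/protein concentration.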

SMILES	IC50 (Wnt pathway; 24 h) [nM]	microsomal CLint at 0.8 μM [1] [µL/min/mg]	IC50 (Wnt pathway; 24 hours) [nM]	Human Clint [1] [µL/min/mg]
Cn1ncc2cc(-c3cncc(Cl)c3N3CCC4(CC3)C(=O)NN=C4C(F)(F)F)ccc21 [Example 61, 8-[3-Chloro-5-(1-methyl-1H-indazol-5-yl)-pyridin-4-yl]-4-trifluoromethyl-2,3,8-triaza-spiro[4.5]dec-3-en-1-one]	17	38		
O=C1NCC2(CCN(c3c(Cl)cncc3-c3ccc(-c4cnn([C@H]5CCC[C@@H]5O)c4)cc3)CC2)O1 [Example 62, 8-(3-Chloro-5-{4-[1-((1S,2S)-2-hydroxy-cyclopentyl)-1H-pyrazol-4-yl]-phenyl}-pyridin-4-yl)-1-oxa-3,8-diaza-spiro[4.5]decan-2-one]	34	37		
O=C1NCC2(CCN(c3c(Cl)cncc3-c3ccc(-c4cnn([C@@H]5CCC[C@H]5O)c4)cc3)CC2)O1 [Example 63, 8-(3-Chloro-5-{4-[1-((1R,2R)-2-hydroxy-cyclopentyl)-1H-pyrazol-4-yl]-phenyl}-pyridin-4-yl)-1-oxa-3,8-diaza-spiro[4.5]decan-2-one]	30	29		
O=C1Cc2ccc(-c3cncc(Cl)c3N3CCC4(CCNC4=O)CC3)cc2N1 [Example 64, 8-[3-Chloro-5-(2-oxo-2,3-dihydro-1H-indol-6-yl)-pyridin-4-yl]-2,8-diaza-spiro[4.5]decan-1-one]	19	49		
CN1C(=O)Cc2cc(-c3cncc(Cl)c3N3CCC4(CC3)CC(=O)NC4=O)ccc21 [Example 65, 8-[3-Chloro-5-(1-methyl-2-oxo-2,3-dihydro-1H-indol-5-yl)-pyridin-4-yl]-2,8-diaza-spiro[4.5]decane-1,3-dione]	21	< 10		
Cn1ncc2ccc(-c3cncc(Cl)c3N3CCC4(CC3)CC(=O)NC4=O)cc21 [Example 66, 8-[3-Chloro-5-(1-methyl-1H-indazol-6-yl)-pyridin-4-yl]-2,8-diaza-spiro[4.5]decane-1,3-dione]	15	< 10		
Cn1cc(-c2ccc(-c3cncc(Cl)c3N3CCC4(CC3)C(=O)Nc3cccnc34)cc2)cn1 [Example 68]	1.4	65		
Cn1cc(-c2ccc(-c3cncc(Cl)c3N3CCC4(CC3)C(=O)Nc3ccccc34)cc2)cn1 [Example 69]	1.1	89		
Cn1ncc2cc(-c3cncc(Cl)c3N3CCC4(CC3)C(=O)NCC4O)ccc21 (stereo not shown) [Example 70, 8-[3-Chloro-5-(1-methyl-1H-indazol-5-yl)-pyridin-4-yl]-4-hydroxy-2,8-diaza-spiro[4.5]decan-1-one]			20	24
Cn1cc(-c2ccc(-c3cncc(Cl)c3N3CCC4(CC3)NCCNC4=O)cc2)cn1 [Example 71, 9-{3-Chloro-5-[4-(1-methyl-1H-pyrazol-4-yl)-phenyl]-pyridin-4-yl}-1,4,9-triaza-spiro[5.5]undecan-5-one]	12	49		
O=C1NCCNC12CCN(c1c(Cl)cncc1-c1ccc3oc(=O)[nH]c3c1)CC2 [Example 72, 9-[3-Chloro-5-(2-oxo-2,3-dihydro-benzooxazol-5-yl)-pyridin-4-yl]-1,4,9-triaza-spiro[5.5]undecan-5-one]	35	< 10		
CN1C(=O)Cc2ccc(-c3cncc(Cl)c3N3CCC(N)(C(N)=O)CC3)cc21 [Example 73, 4-Amino-5′-chloro-3′-(1-methyl-2-oxo-2,3-dihydro-1H-indol-6-yl)-3,4,5,6-tetrahydro-2H-[1,4′]bipyridinyl-4-carboxylic acid amide]	12	17		
CN1C(=O)Cc2ccc(-c3cncc(Cl)c3N3CCC4(CC3)NCNC4=O)cc21 [Example 74, 8-[3-Chloro-5-(1-methyl-2-oxo-2,3-dihydro-1H-indol-6-yl)-pyridin-4-yl]-1,3,8-triaza-spiro[4.5]decan-4-one]	20	20		
CN1c2ccc(-c3cncc(Cl)c3N3CCC4(CC3)NCNC4=O)cc2CS1(=O)=O [Example 75, 8-[3-Chloro-5-(1-methyl-2,2-dioxo-2,3-dihydro-1H-2l6-benzo[c]isothiazol-5-yl)-pyridin-4-yl]-1,3,8-triaza-spiro[4.5]decan-4-one]	4.7	20		
CN1c2ccc(-c3cncc(F)c3N3CCC4(CCNC4=O)CC3)cc2CS1(=O)=O [Example 76, 8-[3-Fluoro-5-(1-methyl-2,2-dioxo-2,3-dihydro-1H-2l6-benzo[c]isothiazol-5-yl)-pyridin-4-yl]-2,8-diaza-spiro[4.5]decan-1-one]	9.1			36
COCC1(C(N)=O)CCN(c2c(Cl)cncc2-c2ccc3c(c2)CS(=O)(=O)N3C)CC1 [Example 77, 5′-Chloro-4-methoxymethyl-3′-(1-methyl-2,2-dioxo-2,3-dihydro-1H-2l6-benzo[c]isothiazol-5-yl)-3,4,5,6-tetrahydro-2H-[1,4′]bipyridinyl-4-carboxylic acid amide]	0.43	75		
CC(C)n1cc(-c2ccc(-c3cncc(Cl)c3N3CCC4(CC3)NCNC4=O)cc2)cn1 [Example 78, 8-{3-Chloro-5-[4-(1-isopropyl-1H-pyrazol-4-yl)-phenyl]-pyridin-4-yl}-1,3,8-triaza-spiro[4.5]decan-4-one]	3.8	30		
Cn1cc(-c2ccc(-c3cncc(F)c3N3CCC4(CC3)CNC(=O)O4)cc2)cn1 [Example 79, 8-{3-Fluoro-5-[4-(1-methyl-1H-pyrazol-4-yl)-phenyl]-pyridin-4-yl}-1-oxa-3,8-diaza-spiro[4.5]decan-2-one]	43			24
C#Cc1cncc(-c2ccc3c(c2)CS(=O)(=O)N3C)c1N1CCC2(CCNC2=O)CC1 [Example 81, 8-[3-Ethynyl-5-(1-methyl-2,2-dioxo-2,3-dihydro-1H-2l6-benzo[c]isothiazol-5-yl)-pyridin-4-yl]-2,8-diaza-spiro[4.5]decan-1-one]	0.66	66		
Cn1ncc2cc(-c3cncc(Cl)c3N3CCC4(CC3)NCNC4=O)ccc21 [Example 82, 8-[3-Chloro-5-(1-methyl-1H-indazol-5-yl)-pyridin-4-yl]-1,3,8-triaza-spiro[4.5]decan-4-one]	7.3	47		
Cn1ncc2cc(-c3cncc(Cl)c3N3CCC(N)(C(N)=O)CC3)ccc21 [Example 83, 4-Amino-5′-chloro-3′-(1-methyl-1H-indazol-5-yl)-3,4,5,6-tetrahydro-2H-[1,4′]bipyridinyl-4-carboxylic acid amide]	7.1	37		
O=C1CC2(CCN(c3c(Cl)cncc3-c3ccc4c(c3)CS(=O)(=O)N4)CC2)C(=O)N1 [Example 84, 8-[3-Chloro-5-(2,2-dioxo-2,3-dihydro-1H-2l6-benzo[c]isothiazol-5-yl)-pyridin-4-yl]-2,8-diaza-spiro[4.5]decane-1,3-dione]	15	< 10		
CN1c2ccc(-c3cncc(Cl)c3N3CCC(C#N)(CO)CC3)cc2CS1(=O)=O [Example 85, 5′-Chloro-4-hydroxymethyl-3′-(1-methyl-2,2-dioxo-2,3-dihydro-1H-2l6-benzo[c]isothiazol-5-yl)-3,4,5,6-tetrahydro-2H-[1,4′]bipyridinyl-4-carbonitrile]	0.7	51		
